From patent US12286404B2, “Solid state forms of Mitapivat and process for preparation thereof” (TEVA PHARMACEUTICALS INTERNATIONAL GMBH, priority 2020, dated 2025)
Structures can show the parent of a compound that is named as a salt.

How the values were obtained:
Assay type in all cases: physicochemical
Hygroscopicity = assay: Hygroscopicity
[1] = Storage stability under humidity/temperature conditions; settings: for stability under regular conditions: 60% RH at RT; for stability under regular conditions / stability under accelerated conditions: for at least one month; for stability under accelerated conditions: 75% RH at 40° C.; for stability up to 80% RH: up to 80% RH at RT, for at least one week
[2] = Stability under stress conditions (heating, grinding, high pressure); settings: for stability under stress conditions: heating, grinding and high pressure

Molecule	hygroscopicity (Hygroscopicity)	stability under regular conditions [1]	stability under accelerated conditions [1]	stability under stress conditions [2]	stability up to 80% RH [1]	stability under grinding ([2]; grinding)
O=C(c1ccc(NS(=O)(=O)c2cccc3cccnc23)cc1)N1CCN(CC2CC2)CC1 [Form I of Mitapivat HCl, Mitapivat HCl]	non-hygroscopic	stable	stable	stable	–	–
Mitapivat hemisulfate:ascorbic acid	non-hygroscopic	polymorphically and chemically stable	polymorphically and chemically stable	stable	–	–
O=C(c1ccc(NS(=O)(=O)c2cccc3cccnc23)cc1)N1CCN(CC2CC2)CC1 [Form III of Mitapivat HCl, Mitapivat HCl]	–	–	–	–	stable	–
Mitapivat phosphate [Form P1 of Mitapivat phosphate]	non-hygroscopic	–	–	–	stable	stable
